pIC50, pKi: −log10 of the molar value.
Legend:
[1] = Intrinsic clearance in human liver microsomes assessed as per mg of protein at 10 uM; type: ADME, Microsome; conditions: read-out: CLH
[2] = Displacement of [3H]di-o-tolylguanidine from sigma 2 receptor in guinea pig brain membranes after 120 mins by scintillation counter; type: cell membranes, Cavia porcellus, Membrane
[3] = target: Sigma non-opioid intracellular receptor 1 (Homo sapiens, UniProt Q99720); test: biochemical
Description: Displacement of [3H](+)pentazocine from human sigma 1 receptor transfected in HEK293 cell membranes after 120 mins by scintillation counter

Mus musculus = test: Analgesic activity in CD1 mouse assessed as inhibition of capsaicin-induced mechanical hypersensitivity at 16 mg/kg, ip administered 15 mins prior to capsaicin challenge measured 30 mins post capsaicin challenge; type: functional; conditions: route intraperitoneal
[4] = target: Voltage-gated inwardly rectifying potassium channel KCNH2 (Homo sapiens, UniProt Q12809)
Sequence of Voltage-gated inwardly rectifying potassium channel KCNH2 (Q12809 whole entry): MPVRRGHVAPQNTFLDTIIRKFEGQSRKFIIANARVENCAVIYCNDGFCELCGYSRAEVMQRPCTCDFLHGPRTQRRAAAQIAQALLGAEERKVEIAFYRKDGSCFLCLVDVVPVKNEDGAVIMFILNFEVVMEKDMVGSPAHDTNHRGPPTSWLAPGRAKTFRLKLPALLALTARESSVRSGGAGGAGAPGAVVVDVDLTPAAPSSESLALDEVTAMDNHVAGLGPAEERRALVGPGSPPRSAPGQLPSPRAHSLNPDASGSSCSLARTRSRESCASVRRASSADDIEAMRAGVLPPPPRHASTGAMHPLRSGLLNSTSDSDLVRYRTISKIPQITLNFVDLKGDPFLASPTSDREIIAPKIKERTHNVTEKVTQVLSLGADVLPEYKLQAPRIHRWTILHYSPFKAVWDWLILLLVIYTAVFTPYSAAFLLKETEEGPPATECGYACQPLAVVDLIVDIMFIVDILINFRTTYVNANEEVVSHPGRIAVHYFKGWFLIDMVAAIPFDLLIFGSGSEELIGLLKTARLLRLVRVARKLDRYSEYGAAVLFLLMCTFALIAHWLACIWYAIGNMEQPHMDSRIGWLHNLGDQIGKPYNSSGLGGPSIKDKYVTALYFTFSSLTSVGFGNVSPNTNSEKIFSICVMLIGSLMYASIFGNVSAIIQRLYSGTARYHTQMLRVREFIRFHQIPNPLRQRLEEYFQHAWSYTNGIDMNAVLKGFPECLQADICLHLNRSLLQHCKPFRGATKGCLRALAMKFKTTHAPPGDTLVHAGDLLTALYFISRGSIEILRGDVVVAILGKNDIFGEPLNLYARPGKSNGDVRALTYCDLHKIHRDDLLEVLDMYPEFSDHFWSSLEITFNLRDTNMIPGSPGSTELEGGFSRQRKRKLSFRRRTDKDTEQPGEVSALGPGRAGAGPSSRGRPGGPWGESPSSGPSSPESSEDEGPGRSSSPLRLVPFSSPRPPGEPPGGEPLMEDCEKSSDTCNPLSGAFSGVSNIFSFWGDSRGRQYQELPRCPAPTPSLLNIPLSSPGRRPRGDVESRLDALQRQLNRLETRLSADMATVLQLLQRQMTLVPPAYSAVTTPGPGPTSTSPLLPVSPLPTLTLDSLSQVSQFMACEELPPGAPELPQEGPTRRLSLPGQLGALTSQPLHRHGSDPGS
Description: Inhibition of human ERG transfected in HEK293 cell membranes by whole cell patch clamp assay

Sequence of Sigma non-opioid intracellular receptor 1 (Q99720 whole entry): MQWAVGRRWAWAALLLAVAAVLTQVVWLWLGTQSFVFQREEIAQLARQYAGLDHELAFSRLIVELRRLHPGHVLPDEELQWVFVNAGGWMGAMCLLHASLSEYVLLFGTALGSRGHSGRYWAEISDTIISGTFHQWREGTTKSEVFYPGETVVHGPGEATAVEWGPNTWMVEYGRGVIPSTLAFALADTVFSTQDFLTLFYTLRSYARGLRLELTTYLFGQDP

Compound	microsomal CLint at 10 µM [1]	pKi [2]	pKi [3]	inhibition in vivo at 16 mg/kg (Mus musculus)	pIC50 [4]
CCOC(=O)N1CCN(CCOc2cc(C)n(-c3ccc(Cl)c(Cl)c3)n2)CC1	26 µL/min/mg	< 6.00	7.36	–	–
Cc1cc(OCCN2CCCCC2)nn1-c1ccc2ccccc2c1	–	7.07	8.00	–	–
Clc1ccc(-n2ccc(OCCCN3CCCCC3)n2)cc1Cl	–	7.43	8.02	–	–
CCN(CC)CCCCOc1ccn(-c2ccc(Cl)c(Cl)c2)n1	–	6.98	7.76	–	–
COCCN(C)CCCCOc1ccn(-c2ccc(Cl)c(Cl)c2)n1	–	7.18	8.09	–	–
Cc1c(OCCN2CCOCC2)nn(-c2ccc(Cl)c(Cl)c2)c1C	–	6.45	8.03	–	–
CC(=O)N1CCN(CCCCOc2cc(C)n(-c3ccc4ccccc4c3)n2)CC1	–	6.49	6.53	–	–
CCN(CC)CCOc1cc(C)n(-c2ccc(Cl)c(Cl)c2)n1	–	6.60	8.00	–	–
Cc1cc(OCCN2CCOCC2)nn1-c1ccc(Cl)cc1Cl	25 µL/min/mg	< 6.00	7.36	–	–
Cc1cc(OCCNC2CCCCC2)nn1-c1ccc(Cl)c(Cl)c1	–	8.06	8.07	–	–
Cc1cc(OCCN2CCCCC2)nn1-c1ccc(Cl)c(Cl)c1	–	6.68	8.26	–	–
Cc1cc(OCCCCN2CCOCC2)nn1-c1ccc(Cl)c(Cl)c1	–	6.61	7.88	–	–
Clc1ccc(-n2nc(OCCN3CCOCC3)cc2-c2ccccc2)cc1Cl	–	< 6.00	6.65	–	–
c1cn(C2CCCCC2)nc1OCCN1CCOCC1	–	< 6.00	7.64	20%	< 5.00
Cc1cc(SCCN2CCOCC2)nn1-c1ccc(Cl)c(Cl)c1	37 µL/min/mg	< 6.00	7.85	–	< 5.00
Cc1cc(OCCN2CCCCCC2)nn1-c1ccc(Cl)c(Cl)c1	–	7.20	8.03	–	–
O=C(CN1CCCCC1)Nc1ccn(-c2ccc(Cl)c(Cl)c2)n1	–	< 6.00	7.09	–	–
O=S(=O)(CCN1CCOCC1)OCCOc1ccn(-c2ccc(Cl)c(Cl)c2)n1	–	< 6.00	6.06	–	–
CC(C)(C)n1ccc(OCCN2CCOCC2)n1	–	< 6.00	< 6.00	–	–
Clc1ccc(-n2ccc(NCCN3CCCCC3)n2)cc1Cl	–	7.04	8.02	–	–
Cc1cc(OCCCCN2CCC(c3ccccc3)CC2)nn1-c1ccc(Cl)c(Cl)c1	–	7.57	7.59	–	–
CN1CCN(CCc2ccc(Cl)c(Cl)c2)CC1	–	6.50	8.20	–	–
Clc1ccc(-n2ccc(NCCN3CCOCC3)n2)cc1Cl	–	6.25	7.40	–	–

Compound	microsomal CLint at 10 µM [1]	pKi [2]	pKi [3]	inhibition in vivo at 16 mg/kg (Mus musculus)	pIC50 [4]
Cc1cc(OCCCN2CCN(C)CC2)nn1-c1ccc(Cl)c(Cl)c1	–	6.77	7.88	–	–
Clc1ccc(-n2ccc(OCCCCN3CCOCC3)n2)cc1Cl	–	6.08	7.75	–	–
Cc1cc(OCCCCN2CCOCC2)nn1-c1ccc2ccccc2c1	–	6.37	7.00	–	–
Cc1cc(OCCN2CCCC2)nn1-c1ccc2ccccc2c1	–	6.40	8.00	–	–
Clc1ccc(-n2ccc(OCCCCN3CCSCC3)n2)cc1Cl	–	6.46	7.99	–	–
Cc1cc(OCCCN2CCOCC2)nn1-c1ccc(Cl)c(Cl)c1	–	6.20	7.72	–	–
Cc1cc(OCCCCN2CCN(C)CC2)nn1-c1ccc(Cl)c(Cl)c1	–	6.99	8.00	–	–
Cc1cc(OCCCCN2C[C@@H](C)O[C@@H](C)C2)nn1-c1ccc2ccccc2c1	–	6.65	7.19	–	–
CC1CCN(CCOc2ccn(-c3ccc(Cl)c(Cl)c3)n2)CC1	–	7.48	8.07	–	–
Cc1cc(OCCN2CCC(C)CC2)nn1-c1ccc(Cl)c(Cl)c1	–	6.79	8.08	–	–
COc1ccc(-n2nc(OCCN3CCOCC3)cc2C)cc1	–	< 6.00	< 6.00	–	–
Cc1cc(OCCN2CCOCC2=O)nn1-c1ccc2ccccc2c1	–	< 6.00	< 6.00	–	–
Cc1c(OCCN2CCOCC2)nn(-c2ccc3ccccc3c2)c1C	–	< 6.00	6.86	–	–
Cc1cc(OCCCCn2ccc3c2CCCC3=O)nn1-c1ccc(Cl)c(Cl)c1	–	< 6.00	< 6.00	–	–
Clc1ccc(-n2ccc(OCCN3CCCC3)n2)cc1Cl	–	7.63	7.80	–	–
Clc1ccc(-n2ccc(OCCOCCN3CCCCC3)n2)cc1Cl	–	7.85	7.43	–	–
CN1CCN(CC(O)COc2ccn(-c3ccc(Cl)c(Cl)c3)n2)CC1 (stereo not drawn)	–	< 6.00	6.63	–	–
Cc1cc(OCCCN2CCCC2)nn1-c1ccc(Cl)c(Cl)c1	–	7.21	7.98	–	–
CCN(CC)CCCCOc1cc(C)n(-c2ccc(Cl)c(Cl)c2)n1	–	7.34	7.93	–	–
Cc1cc(OCCN2CCN(C)CC2)nn1-c1ccc(Cl)c(Cl)c1	3 µL/min/mg	< 6.00	7.95	27%	5.13
Clc1ccc(-n2ccc(OCCN3CCCCC3)n2)cc1Cl	–	7.19	7.78	–	–
Cc1cc(OCCCCN2CCCC2)nn1-c1ccc(Cl)c(Cl)c1	–	7.90	8.16	–	–
Cc1cc(OCCN2CCC(n3cnc4cccnc43)CC2)nn1-c1ccc(Cl)c(Cl)c1	–	6.36	7.80	–	–

Compound	microsomal CLint at 10 µM [1]	pKi [2]	pKi [3]	inhibition in vivo at 16 mg/kg (Mus musculus)	pIC50 [4]
CC(=O)c1c(OCCN2CCOCC2)nn(-c2ccc(Cl)c(Cl)c2)c1C	–	< 6.00	6.13	–	–
Cc1cc(OCCN2C[C@@H](C)O[C@@H](C)C2)nn1-c1ccc2ccccc2c1	25 µL/min/mg	< 6.00	7.47	–	5.13
Clc1ccc(-n2ccc(OCCN3CCOCC3)n2)cc1	–	6.45	7.75	–	–
CCN(CC)CCOc1cc(C)n(-c2ccc3ccccc3c2)n1	–	6.23	7.33	–	–
Cc1cc(OCCN2CCN(c3ccccc3)CC2)nn1-c1ccc(Cl)c(Cl)c1	–	6.25	7.83	–	–
Clc1ccc(-n2ccc(OCCN3CCCCCC3)n2)cc1Cl	–	–	8.05	–	–
C[C@@H]1CN(CCCCOc2ccn(-c3ccc(Cl)c(Cl)c3)n2)C[C@H](C)O1	–	6.82	7.83	–	–
OC(COc1ccn(-c2ccc(Cl)c(Cl)c2)n1)CN1CCOCC1 (stereo not drawn)	–	< 6.00	6.89	–	–
Cc1cc(OCCN2CCCC2)nn1-c1ccc(Cl)c(Cl)c1	–	6.32	8.28	–	–
Cc1cc(OCCN2CCOCC2)nn1-c1cccc(Cl)c1	–	< 6.00	6.74	–	–
Cc1cc(OCCCCn2ccnc2)nn1-c1ccc(Cl)c(Cl)c1	–	< 6.00	6.07	–	–
Cc1cc(OCCN2CCOCC2)n(-c2ccc3ccccc3c2)n1	–	< 6.00	< 6.00	–	–
CC(C)c1cc(OCCN2CCOCC2)nn1-c1ccc(Cl)c(Cl)c1	–	< 6.00	6.76	–	–
Cc1cc(OCCN2CCOCC2)nn1-c1ccc(Cl)c(Cl)c1	12 µL/min/mg	< 6.00	–	25%	–
Cc1cc(OCCN2CCOCC2)nn1-c1ccccc1	–	< 6.00	< 6.00	–	–
CC(=O)N1CCN(CCOc2cc(C)n(-c3ccc4ccccc4c3)n2)CC1	–	< 6.00	7.08	–	–
O=C(CCCN1CCC(O)(c2ccc(Cl)cc2)CC1)c1ccc(F)cc1 [HALOPERIDOL]	–	7.66	–	–	–
Cc1cc(OCCCCN2CCCCC2)nn1-c1ccc(Cl)c(Cl)c1	–	7.32	8.15	–	–
CN1CCN(CCCOc2ccn(-c3ccc(Cl)c(Cl)c3)n2)CC1	–	6.51	7.78	–	–
Clc1ccc(-n2ccc(OCCCN3CCOCC3)n2)cc1Cl	–	6.40	7.79	–	–
Clc1ccc(-n2ccc(OCCN3CCOCC3)n2)cc1Cl	–	6.55	8.09	–	–
CN(CCCCOc1ccn(-c2ccc(Cl)c(Cl)c2)n1)Cc1ccccc1	–	7.33	7.62	–	–
Cc1cc(OCCn2ccnc2)nn1-c1ccc(Cl)c(Cl)c1	–	< 6.00	6.53	–	–
